15 molecules from US20250215032A1, “PHOSPHORYLPURINONE COMPOUNDS FOR THE TREATMENT OF CANCER” (Hoffmann-La Roche Inc., priority 2022, published 2025) can be followed below.

Values after ≈ are worked out from the molar mass of the structure shown. Bounds are passed on as bounds.

The nature of data set [1]: Lyophilisation solubility assay (LYSA), kinetic solubility. The data set is classed as physicochemical. The conditions noted are these: aqueous buffer; 0.05 M phosphate buffer (pH 6.5), from 10 mM DMSO stock after evaporation. The source says: The solubility of a substance can be broadly defined as the maximum amount of the substance that dissolves in a specified volume of solvent. However, it is important to understand that the solubility of a compound can vary drastically depending on the condition of the solvent (e.g. temperature and pH) and the physiochemical properties of the compound (e.g. ionisation and crystallinity). These critical factors need to be considered during solubility determination in order to generate high quality solubility data that will be useful in the progression of compounds through the discovery and development stages. The kinetic solubility of a compound is the maximum solubility of the fastest precipitating species of the compound; this is often measured using a stock solution of the compound dissolved in an organic solvent, typically dimethyl sulfoxide (DMSO), as the starting material. […] The precipitate formed, which is rarely determined during the assessment, could be any combination of various possible solid states of the compound. Given the level of supersaturation that could occur when an organic solvent is diluted in water, kinetic solubility values are typically higher than the corresponding thermodynamic (equilibrium) solubility values. Solubility assays in the early discovery process often determine kinetic solubility. The lyophilisation solubility assay (LYSA) is a high throughput kinetic solubility assay for the early drug discovery process.
Samples were prepared in duplicate from 10 mM DMSO stock solution. After evaporation of DMSO with a centrifugal vacuum evaporator, the compounds were solved in 0.05 M phosphate buffer (pH 6.5), stirred for one hour and shaken for two hours. After one night, the solutions were filtered using a microtiter filter plate. Then the filtrate and its 1/10 dilution were analyzed by HPLC-UV. […] The results were in μg/mL. […] It should be noted that metastable solid phases may form during the evaporation step, and the method might therefore produce higher solubility values than assays using the stable polymorph as the starting material.

Data set [2] addresses T1, human TLR7 (Homo sapiens, UniProt Q9NYK1).
T1 sequence (Q9NYK1 27-1049): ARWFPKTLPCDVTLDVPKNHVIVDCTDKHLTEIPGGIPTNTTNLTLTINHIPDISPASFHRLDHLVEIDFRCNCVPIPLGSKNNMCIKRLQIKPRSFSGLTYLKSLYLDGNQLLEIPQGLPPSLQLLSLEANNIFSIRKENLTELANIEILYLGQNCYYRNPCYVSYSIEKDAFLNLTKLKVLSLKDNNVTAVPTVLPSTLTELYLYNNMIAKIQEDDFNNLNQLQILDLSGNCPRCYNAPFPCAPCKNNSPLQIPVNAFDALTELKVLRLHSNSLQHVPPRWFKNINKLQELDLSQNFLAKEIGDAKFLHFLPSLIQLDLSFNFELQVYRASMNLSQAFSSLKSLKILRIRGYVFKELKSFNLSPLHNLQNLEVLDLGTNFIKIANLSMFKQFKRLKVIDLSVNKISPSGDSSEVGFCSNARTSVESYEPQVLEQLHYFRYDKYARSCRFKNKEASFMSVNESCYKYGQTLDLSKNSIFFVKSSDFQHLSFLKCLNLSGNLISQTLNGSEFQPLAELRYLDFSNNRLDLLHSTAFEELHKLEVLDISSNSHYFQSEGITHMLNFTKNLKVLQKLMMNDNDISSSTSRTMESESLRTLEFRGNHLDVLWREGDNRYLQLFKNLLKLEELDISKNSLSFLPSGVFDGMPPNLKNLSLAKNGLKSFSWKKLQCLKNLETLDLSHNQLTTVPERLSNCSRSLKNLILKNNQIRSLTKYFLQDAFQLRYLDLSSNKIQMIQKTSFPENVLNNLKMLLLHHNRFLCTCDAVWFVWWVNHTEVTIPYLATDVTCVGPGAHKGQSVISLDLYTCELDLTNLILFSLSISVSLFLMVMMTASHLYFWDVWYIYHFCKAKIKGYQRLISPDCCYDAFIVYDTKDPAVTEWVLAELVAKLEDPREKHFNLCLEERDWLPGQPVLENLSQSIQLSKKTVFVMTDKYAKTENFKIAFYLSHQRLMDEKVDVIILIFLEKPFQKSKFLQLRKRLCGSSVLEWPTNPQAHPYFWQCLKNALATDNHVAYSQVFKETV
Description: HEK293-Blue-hTLR7 cells assay (SEAP reporter, NF-κB activation).
Description: A stable HEK293-Blue-h TLR7 cell line was purchased from InvivoGen (Cat. #: hkb-htlr7, San Diego, California, USA). These cells were designed for studying the stimulation of human TLR7 by monitoring the activation of NF-κB. A SEAP (secreted embryonic alkaline phosphatase) reporter gene was placed under the control of the IFN-β minimal promoter fused to five NF-κB and AP-1-binding sites. The SEAP was induced by activating NF-κB and AP-1 via stimulating HEK-Blue hTLR7 cells with TLR7 ligands. Therefore the reporter expression was regulated by the NF-κB promoter upon stimulation of human TLR7 for 20 hrs. The cell culture supernatant SEAP reporter activity was determined using QUANTI-Blue™ kit (Cat. #: rep-qb1, Invivogen, San Diego, Ca, USA) at a wavelength of 640 nm, a detection medium that turns purple or blue in the presence of alkaline phosphatase.
HEK293-Blue-hTLR7 cells were incubated at a density of 250,000˜450,000 cells/mL in a volume of 180 μL in a 96-well plate in Dulbecco's Modified Eagle's medium (DMEM) containing 4.5 g/L glucose, 50 U/mL penicillin, 50 mg/mL streptomycin, 100 mg/mL Normocin, 2 mM L-glutamine, 10% (V/V) heat-inactivated fetal bovine serum for 24 hrs. Then the HEK293-Blue-hTLR7 cells were incubated with addition of 20 μL test compound in a serial dilution in the presence of final DMSO at 1% and perform incubation under 37° C. in a CO2 incubator for 20 hrs.

Data set [3] in a line: Thermodynamic solubility assay (THESA), equilibrium solubility. It counts as physicochemical. Particulars: 22 °C, aqueous buffer, thermodynamic from solid; 50 mM phosphate buffer (pH 6.5), room temperature (22±2° C.). As for the experimental part:
The thermodynamic (equilibrium) solubility is the saturation solubility of a compound at the end of the dissolution process, where the dissolved compound is in equilibrium with the undissolved material in excess. The thermodynamic solubility is determined by dispensing a solid compound into a solvent. This is often deemed as the true solubility of the compound and is a critical piece of information in formulation development. The thermodynamic solubility assay (THESA) is a widely used tool for the measurement of equilibrium solubility for the later drug discovery process and is considered as a gold standard solubility assay.
Approximately 1-2 mg of each compound was added into 300 μL of 50 mM phosphate buffer (pH 6.5) at room temperature (22±2° C.). Each sample is placed in a microanalysis tube, which was sonicated for 1 h and shaken for 2 h. All suspensions were left overnight (about 16 h). On the next day, the samples were filtered into a V-bottom plate with a micronic filterplate to separate the solid material from the solution. Then, all solutions were diluted into 96 well V-bottom microplates and analyzed by UPLC-UV. The calibration line was established by UPLC using 5 different dilutions of the compound in a DMSO stock solution, made in micronic tubes (concentration approximately 1 mg/mL). Dilutions took place with DMSO. From this regression equation the solubility of the compound was determined. In cases where the drug was completely dissolved in the buffer, the value for equilibrium solubility was assumed to be higher than the value determined by UPLC and reported as such.

For `CN1CCOC2(CCN(c3ccc(Cn4c(=O)[nH]c5c(N)nc(P(C)(C)=O)nc54)cn3)CC2)C1` [Example 10, 6-amino-2-dimethylphosphoryl-9-[[6-(4-methyl-1-oxa-4,9-diazaspiro[5.5]undecan-9-yl)-3-pyridyl]methyl]-7H-purin-8-one], the solubility (kinetic) in data set [1] is > 650 µg/mL. This molecule came in with a concentration giving a half-maximal response (EC50) in data set [2] of 24 nM. For `CP(C)(=O)c1nc(N)c2[nH]c(=O)n(Cc3ccc(N4CC5CCC4CN5)nc3)c2n1` (stereo not shown) [Example 5, 6-amino-9-[[6-(2,5-diazabicyclo[2.2.2]octan-2-yl)-3-pyridyl]methyl]-2-dimethylphosphoryl-7H-purin-8-one], in that order: > 570 µg/mL and 12 nM. On the same counts, the results for `CN1CCC(Nc2ccc(Cn3c(=O)[nH]c4c(N)nc(P(C)(C)=O)nc43)cn2)C1` (stereo not shown) [Example 11, 6-amino-2-dimethylphosphoryl-9-[[6-[(1-methylpyrrolidin-3-yl)amino]-3-pyridyl]methyl]-7H-purin-8-one] are > 620 µg/mL and 28 nM. For `CC1(C)CN(c2ccc(Cn3c(=O)[nH]c4c(N)nc(P(C)(C)=O)nc43)cn2)CCN1` [Example 4, 6-amino-2-dimethylphosphoryl-9-[[6-(3,3-dimethylpiperazin-1-yl)-3-pyridyl]methyl]-7H-purin-8-one], in that order: > 640 µg/mL and 10 nM.

With `CP(C)(=O)c1nc(N)c2[nH]c(=O)n(Cc3ccc(NCCN4CCCC4)nc3)c2n1` [Example 7, 6-amino-2-dimethylphosphoryl-9-[[6-(2-pyrrolidin-1-ylethylamino)-3-pyridyl]methyl]-7H-purin-8-one], the kinetic solubility in data set [1] is > 540 µg/mL. For the same molecule, in data set [2], the EC50 stood at 38 nM. Regarding `CP(C)(=O)c1nc(N)c2[nH]c(=O)n(Cc3ccc(NC4CCOCC4)nc3)c2n1` [Example 8, 6-amino-2-dimethylphosphoryl-9-[[6-(tetrahydropyran-4-ylamino)-3-pyridyl]methyl]-7H-purin-8-one], the solubility (kinetic) in data set [1] is > 520 µg/mL. The EC50 in data set [2] was found to be 39 nM. With `CC[P@@](C)(=O)c1nc(N)c2[nH]c(=O)n(Cc3ccc(NCCNC)nc3)c2n1` [Example 17, 6-amino-2-[(R)-ethyl(methyl)phosphoryl]-9-[[6-[2-(methylamino)ethylamino]-3-pyridyl]methyl]-7H-purin-8-one], the kinetic solubility in data set [1] is > 540 µg/mL. The concentration for a half-maximal effect (EC50) in data set [2] was determined as 45 nM. Take `CP(C)(=O)c1nc(N)c2[nH]c(=O)n(Cc3ccc(N4CCC(N)C4)nc3)c2n1` (stereo not shown) [Example 3, 6-amino-9-[[6-(3-aminopyrrolidin-1-yl)-3-pyridyl]methyl]-2-dimethylphosphoryl-7H-purin-8-one]: in data set [1], the kinetic solubility was > 600 µg/mL. The EC50 in data set [2] is 28 nM. `CP(C)(=O)c1nc(N)c2[nH]c(=O)n(Cc3ccc(N4CC5CNCC5C4)nc3)c2n1` (stereo not shown) [Example 6, 9-[[6-(2,3,3a,4,6,6a-hexahydro-1H-pyrrolo[3,4-c]pyrrol-5-yl)-3-pyridyl]methyl]-6-amino-2-dimethylphosphoryl-7H-purin-8-one]: the kinetic solubility in data set [1] is > 630 µg/mL. Further, the concentration for a half-maximal effect (EC50) in data set [2] is 27 nM. Turning to `CCN(C)CCNc1ccc(Cn2c(=O)[nH]c3c(N)nc(P(C)(C)=O)nc32)cn1` [Example 12, 6-amino-2-dimethylphosphoryl-9-[[6-[2-[ethyl(methyl)amino]ethylamino]-3-pyridyl]methyl]-7H-purin-8-one], the kinetic solubility in data set [1] is > 560 µg/mL. Besides, the EC50 in data set [2] came to 84 nM.

`CCP(=O)(CC)c1nc(N)c2[nH]c(=O)n(Cc3ccc(NCCN(C)C)nc3)c2n1` [Example 19, 6-amino-2-diethylphosphoryl-9-[[6-[2-(dimethylamino)ethylamino]-3-pyridyl]methyl]-7H-purin-8-one]: in data set [1], the solubility (kinetic) was > 580 µg/mL. Besides, the solubility (thermodynamic) in data set [3] is 2370 µg/mL (≈ 5.47 mM). The EC50 in data set [2] was determined as 9 nM. For the molecule `CC[P@@](C)(=O)c1nc(N)c2[nH]c(=O)n(Cc3ccc(N4CCN(S(C)(=O)=O)CC4)nc3)c2n1` [Example 14-A, 6-amino-2-[(R)-ethyl(methyl)phosphoryl]-9-[[6-(4-methylsulfonylpiperazin-1-yl)-3-pyridyl]methyl]-7H-purin-8-one], the kinetic solubility in data set [1] was found to be 150 µg/mL. Take `CC[P@](C)(=O)c1nc(N)c2[nH]c(=O)n(Cc3ccc(N4CCN(S(C)(=O)=O)CC4)nc3)c2n1` [Example 14-B, 6-amino-2-[(S)-ethyl(methyl)phosphoryl]-9-[[6-(4-methylsulfonylpiperazin-1-yl)-3-pyridyl]methyl]-7H-purin-8-one]: in data set [1], the solubility (kinetic) was 170 µg/mL.

On to `CN(C)CC1CCN(c2ccc(Cn3c(=O)[nH]c4c(N)nc(P(C)(C)=O)nc43)cn2)C1` (stereo not shown) [Example 9, 6-amino-9-[[6-[3-[(dimethylamino)methyl]pyrrolidin-1-yl]-3-pyridyl]methyl]-2-dimethylphosphoryl-7H-purin-8-one], for which the kinetic solubility in data set [1] is > 650 µg/mL. The EC50 in data set [2] worked out at 21 nM.

Turning to `CC[P@](C)(=O)c1nc(N)c2[nH]c(=O)n(Cc3ccc(N4CCN(C)CC4)nc3)c2n1` [Example 13-B, 6-amino-2-[(S)-ethyl(methyl)phosphoryl]-9-[[6-(4-methylpiperazin-1-yl)-3-pyridyl]methyl]-7H-purin-8-one], in data set [1], the kinetic solubility is > 530 µg/mL.

As a reminder, the kinetic solubility is solubility judged after dilution from a stock solution rather than from solid. One may read the EC50 as the concentration at which the effect is half-maximal. Usually solubility (thermodynamic) stands for the concentration in solution at equilibrium with solid.
